# Peptide text beside a SMILES is read from it.
# Legend:
# [1] = test system: 0.5% whole blood; settings: ref [5], [7], [11], [12], [38]; cited from earlier work
# [2] = test system: RAW264.7 cells; experiment: Uptake of TAMRA-labeled TCPs, flow cytometry; assay type: cell-based, murine; settings: Fig. 1d, inhibitor 30 min then 2 µM T-GKY25 1 h, n = 3-4
# [3] = ref [11]; cited from earlier work
compound,measurement,setting,value
CC[C@H](C)[C@H](NC(=O)[C@H](Cc1c[nH]c2ccccc12)NC(=O)[C@H](CCCCN)NC(=O)[C@H](CCCCN)NC(=O)[C@H](CC(C)C)NC(=O)[C@H](CCCNC(=N)N)NC(=O)[C@H](Cc1ccccc1)NC(=O)[C@@H](NC(=O)[C@@H](N)Cc1cnc[nH]1)C(C)C)C(=O)N[C@@H](CCC(N)=O)C(=O)N[C@@H](CCCCN)C(=O)N[C@H](C(=O)N[C@H](C(=O)N[C@@H](CC(=O)O)C(=O)N[C@@H](CCC(N)=O)C(=O)N[C@@H](Cc1ccccc1)C(=O)NCC(=O)N[C@@H](CCC(=O)O)C(=O)O)[C@@H](C)CC)C(C)C [HVF18] (H-HVFRLKKWIQKVIDQFGE-OH),concentration from which hemolysis is induced,[1],> 80 µM
"CN(C)c1cccc2c(S(=O)(=O)NCCCCCN)cccc12 [dansylcadaverine, Dansylcadaverine]",effect of inhibitor on uptake of T-GKY25,[2],did not show any effect
WFFFYYLIIGGGVVTHQQRKKKKDE [WFF25],immunomodulatory effects,[3],did not show any immunomodulatory effects

# From article PMC9485985 (Journal of Innate Immunity, 2021)
